{"source": "patent US20240124434A1", "about": "“ATF6 INHIBITORS AND USES THEREOF” (Altos Labs, Inc., priority 2018, published 2024)", "tested_on": "ATF6", "test": "ERSE ATF6-luciferase reporter assay (thapsigargin-induced ER stress)", "assay_type": "cell-based, human", "details": "Homo sapiens, U2OS", "procedure": "Human bone osteosarcoma (U2-OS) cells were obtained from the American Type Culture Collection (ATCC HTB-96, ATCC Manassas, VA) and were cultured with growing medium containing Dulbecco's Modified Eagle's Medium (DMEM) (Cat. No.:SH30023.02, HyClone) supplemented with fetal bovine serum (FBS) 10% (Cat. No.: 16000044, Gibco) and 1% penicillin-streptomycin antibiotic cocktail (Cat. No.: SV30010, Hyclone).\nCignal Lenti ATF6 luc reporter (Qiagen #CLS-6031L) was used to produce a stable cell line in U2-OS cells. […] The number of response elements as well as the intervening sequence between response elements has been experimentally optimized to maximize the signal to noise ratio.\nCompounds were prepared as 10 mM stock solutions and stored at −80° C.\nU2-OS ATF6 luc reporter cells were thawed 3-4 days and split once prior to assays. […] At the day of experiment, cells were pre-treated for 30 min with 50 μL growing medium containing either vehicle (dimethyl sulfoxide (DMSO)) (Cat. No.: D2650, Sigma-Aldrich) or 1 μM test compound. After the pre-incubation time, 50 μL of a solution containing 0.2 μM thapsigargin (Tg)(an ER stress inducer) was added to respective wells. This Tg solution also contained vehicle or test compounds at 1 μM. The final concentration of DMSO in each well was kept at 0.3%. Plates were incubated for 8 hr in humidified chambers.\nFinally, after 8 hr, plates were cooled to room temperature for 10 min prior to luciferase assays. Luciferase reactions were performed using Luciferase Assay System (Cat. No.: E4550, Promega). Briefly, each well was washed with 100 μl of PBS1X and then 20 μl of lysis reagent were added into each well. Plates were shaken for 10 min, then 50 μl of Luciferase Assay Reagent were added to each well and luminescence was read with an integration time of 1 s and a gain of 110 in a Synergy 4 Microplate reader.\nFor the assessment of the half-maximal inhibitory concentration (IC50) for selected compounds, dose-response assays were performed. Compounds were serially diluted using DMSO starting at 30 μM until 1 nM. The assays were run as described above.", "key": {"[1]": {"details": "8 h, 1 μM test compound, thapsigargin-induced ER stress, U2-OS ATF6 luc reporter cells, 8 hr, read-out: Inh. ATF6-Luc @ 1 μM [%]"}, "[2]": {"details": "dose-response 30 μM to 1 nM, thapsigargin-induced ER stress, U2-OS ATF6 luc reporter cells, read-out: IC50 ATF6-Luc reporter"}, "[3]": {"details": "1 μM test compound, thapsigargin-induced ER stress, U2-OS ATF6 luc reporter cells, 8 hr, read-out: Inh. ATF6-Luc @ 1 μM [%]"}}, "note": "Like-named read-outs stand apart in the source and are kept apart here.", "data": [{"smiles": "O=C(Nc1cnn(C(c2ccc(C(F)(F)F)cc2C(F)(F)F)C2CC2)c1)c1cc(-c2ccccn2)on1", "note": "(stereo not drawn) [Compound 33, N-(1-((2,4-bis(trifluoromethyl)phenyl)(cyclopropyl)methyl)-1H-pyrazol-4-yl)-5-(pyridin-2-yl)isoxazole-3-carboxamide]", "values": [{"measurement": "inhibition at 1 µM", "setting": "[1]", "result": "< 25", "unit": "%"}, {"measurement": "IC50", "setting": "[2]", "result": "> 10", "unit": "µM"}]}, {"smiles": "C[C@H](c1ccc(C(F)(F)F)cc1C(F)(F)F)n1cc(NC(=O)c2cc(-c3ncccc3Cl)on2)cn1", "note": "[Compound 34, (R)-N-(1-(1-(2,4-bis(trifluoromethyl)phenyl)ethyl)-1H-pyrazol-4-yl)-5-(3-chloropyridin-2-yl)isoxazole-3-carboxamide]", "values": [{"measurement": "inhibition at 1 µM", "setting": "[1]", "result": "< 25", "unit": "%"}, {"measurement": "IC50", "setting": "[2]", "result": "> 10", "unit": "µM"}]}, {"smiles": "C[C@@H](c1ccc(C(F)(F)F)cc1C(F)(F)F)n1cc(NC(=O)c2cc(-c3ncccc3Cl)on2)cn1", "note": "[Compound 35, (S)-N-(1-(1-(2,4-bis(trifluoromethyl)phenyl)ethyl)-1H-pyrazol-4-yl)-5-(3-chloropyridin-2-yl)isoxazole-3-carboxamide]", "values": [{"measurement": "inhibition at 1 µM", "setting": "[1]", "result": "< 25", "unit": "%"}, {"measurement": "IC50", "setting": "[2]", "result": "> 10", "unit": "µM"}]}, {"smiles": "C[C@H](c1ccc(C(F)(F)F)cc1C(F)(F)F)n1cc(NC(=O)c2cc(-c3cccnc3)on2)cn1", "note": "[Compound 36, (R)-N-(1-(1-(2,4-bis(trifluoromethyl)phenyl)ethyl)-1H-pyrazol-4-yl)-5-(pyridin-3-yl)isoxazole-3-carboxamide]", "values": [{"measurement": "inhibition at 1 µM", "setting": "[1]", "result": "< 25", "unit": "%"}, {"measurement": "IC50", "setting": "[2]", "result": "> 10", "unit": "µM"}]}, {"smiles": "C[C@@H](c1ccc(C(F)(F)F)cc1C(F)(F)F)n1cc(NC(=O)c2cc(-c3cccnc3)on2)cn1", "note": "[Compound 37, (S)-N-(1-(1-(2,4-bis(trifluoromethyl)phenyl)ethyl)-1H-pyrazol-4-yl)-5-(pyridin-3-yl)isoxazole-3-carboxamide]", "values": [{"measurement": "inhibition at 1 µM", "setting": "[1]", "result": "< 25", "unit": "%"}, {"measurement": "IC50", "setting": "[2]", "result": "> 10", "unit": "µM"}]}, {"smiles": "C[C@@H](c1ccc(C(F)(F)F)cc1C(F)(F)F)n1cc(NC(=O)c2cc(-c3ccccn3)no2)cn1", "note": "[Compound 77, (S)—N-(1-(1-(2,4-bis(trifluoromethyl)phenyl)ethyl)-1H-pyrazol-4-yl)-3-(pyridin-2-yl)isoxazole-5-carboxamide]", "values": [{"measurement": "inhibition at 1 µM", "setting": "8 h, read-out: Inh. ATF6-Luc @ 1 μM [%], 1 μM test compound, thapsigargin-induced ER stress, U2-OS ATF6 luc reporter cells, 8 hr", "result": "< 25", "unit": "%"}, {"measurement": "IC50", "setting": "read-out: IC50 ATF6-Luc reporter [μM], dose-response 30 μM to 1 nM, thapsigargin-induced ER stress, U2-OS ATF6 luc reporter cells", "result": "> 10", "unit": "µM"}]}, {"smiles": "CC(c1ccc(C(F)(F)F)cc1C(F)(F)F)n1cc(NC(=O)c2csc(-c3ccccn3)n2)cn1", "note": "(stereo not drawn) [Compound 79, N-(1-(1-(2,4-bis(trifluoromethyl)phenyl)ethyl)-1H-pyrazol-4-yl)-2-(pyridin-2-yl)thiazole-4-carboxamide]", "values": [{"measurement": "inhibition at 1 µM", "setting": "8 h, read-out: Inh. ATF6-Luc @ 1 μM [%]", "result": "< 25", "unit": "%"}, {"measurement": "IC50", "setting": "read-out: IC50 ATF6-Luc reporter [μM]", "result": "> 10", "unit": "µM"}]}, {"smiles": "CC(c1ccc(C(F)(F)F)cc1C(F)(F)F)n1cc(NC(=O)c2cnc(-c3ccco3)s2)cn1", "note": "(stereo not drawn) [Compound 80, N-(1-(1-(2,4-bis(trifluoromethyl)phenyl)ethyl)-1H-pyrazol-4-yl)-2-(furan-2-yl)thiazole-5-carboxamide]", "values": [{"measurement": "inhibition at 1 µM", "setting": "[1]", "result": "< 25", "unit": "%"}, {"measurement": "IC50", "setting": "[2]", "result": "> 10", "unit": "µM"}]}, {"smiles": "CC(c1ccc(C(F)(F)F)cc1C(F)(F)F)n1cc(NC(=O)c2cc(-c3ccccn3)ccn2)cn1", "note": "(stereo not drawn) [Compound 81, N-(1-(1-(2,4-bis(trifluoromethyl)phenyl)ethyl)-1H-pyrazol-4-yl)-[2,4′-bipyridine]-2′-carboxamide]", "values": [{"measurement": "IC50", "setting": "[2]", "result": "> 10", "unit": "µM"}, {"measurement": "inhibition at 1 µM", "setting": "[3]", "result": "< 25", "unit": "%"}]}, {"smiles": "CC(c1ccc(C(F)(F)F)cc1C(F)(F)F)n1cc(NC(=O)c2ccc(-c3ccccn3)cn2)cn1", "note": "(stereo not drawn) [Compound 82, N-(1-(1-(2,4-bis(trifluoromethyl)phenyl)ethyl)-1H-pyrazol-4-yl)-[2,3′-bipyridine]-6′-carboxamide]", "values": [{"measurement": "IC50", "setting": "[2]", "result": "> 10", "unit": "µM"}, {"measurement": "inhibition at 1 µM", "setting": "[3]", "result": "< 25", "unit": "%"}]}, {"smiles": "CC(c1ccc(C(F)(F)F)cc1C(F)(F)F)n1cc(NC(=O)/C=C/c2ccccn2)cn1", "note": "(stereo not drawn) [Compound 83, (E)—N-(1-(1-(2,4-bis(trifluoromethyl)phenyl)ethyl)-1H-pyrazol-4-yl)-3-(pyridin-2-yl)acrylamide]", "values": [{"measurement": "inhibition at 1 µM", "setting": "[1]", "result": "< 25", "unit": "%"}, {"measurement": "IC50", "setting": "[2]", "result": "> 10", "unit": "µM"}]}, {"smiles": "O=C(/C=C/c1ccco1)Nc1cnn(Cc2ccc(C(F)(F)F)cc2C(F)(F)F)c1", "note": "[Compound 84, (E)—N-(1-(2,4-bis(trifluoromethyl)benzyl)-1H-pyrazol-4-yl)-3-(furan-2-yl)acrylamide]", "values": [{"measurement": "IC50", "setting": "[2]", "result": "> 10", "unit": "µM"}, {"measurement": "inhibition at 1 µM", "setting": "[3]", "result": "< 25", "unit": "%"}]}]}
